{
  "source": "patent US8741955B2",
  "about": "“D-serine transporter inhibitors as pharmaceutical compositions for the treatment of central nervous system disorders” (Allergan, Inc., priority 2011, dated 2014)",
  "key": {"human ASCT1": {"molecular_target": "T1, human ASCT1 (Homo sapiens, UniProt P43007)", "T1 construct": "expressed in transfected cells; host or cells: HEK (human embryonic kidney) cells", "T1 sequence (P43007 1-532)": "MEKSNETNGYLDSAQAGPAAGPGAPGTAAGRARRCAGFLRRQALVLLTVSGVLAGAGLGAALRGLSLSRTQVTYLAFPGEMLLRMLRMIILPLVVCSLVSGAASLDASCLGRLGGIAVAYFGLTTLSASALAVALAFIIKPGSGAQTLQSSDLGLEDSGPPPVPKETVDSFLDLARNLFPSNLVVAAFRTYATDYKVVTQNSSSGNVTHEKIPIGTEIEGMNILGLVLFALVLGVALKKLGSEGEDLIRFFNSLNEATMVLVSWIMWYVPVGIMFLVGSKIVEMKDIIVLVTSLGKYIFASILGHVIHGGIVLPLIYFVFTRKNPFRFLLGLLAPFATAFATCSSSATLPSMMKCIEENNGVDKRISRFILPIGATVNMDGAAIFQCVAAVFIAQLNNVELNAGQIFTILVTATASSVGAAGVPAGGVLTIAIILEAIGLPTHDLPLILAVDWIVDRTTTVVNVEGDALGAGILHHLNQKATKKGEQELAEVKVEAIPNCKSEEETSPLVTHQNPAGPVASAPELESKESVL", "assay": "transport into HEK cells expressing ASCT1", "assay_type": "cell-based", "description": "(§1) Cell-based assays: the transport of [^3H]L- or D-serine was measured in primary cultures of rat hippocampal astrocytes or in human embryonic kidney (HEK) cells expressing ASCT transporter sub-types. For the astrocyte assays, cells were plated on either 24- or 96-well plates at a density of 50,000 cells per well. For the HEK assays, cells were plated on coated 96-well plates at a density of 80,000 cells/well. Assays were conducted in duplicate at room temperature in assay buffer consisting of: NaCl: 150 mM, KCl: 2 mM; MgCl2: 1 mM; CaCl2: 1 mM; HEPES: Tris buffer: 10 mM, pH7.4. To assess the sodium-dependence of transport, NaCl was replaced in the assay buffer by equimolar choline chloride. Following aspiration of growth medium and 2 washes with assay buffer, cells were incubated with [^3H]L- or D-serine at a final concentration of 1 μM for 5 min (astrocytes) or 1 min (HEK cells), after which the incubation medium was aspirated and the cells washed twice with ice-cold assay buffer. Cells containing radiolabel were solubilized in 100 μl of 1% Triton-X100 and an aliquot counted in a beta counter. IC50 values were determined over a range of at least 6 concentrations and derived from curve-fitting algorithms available in GraphPad Prism 4."}, "[1]": {"system": "rat hippocampal astrocytes", "assay": "[3H]L-serine transport into astrocytes", "assay_type": "cell-based", "description": "as §1"}, "schizophrenic patients": {"system": "schizophrenic patients", "conditions": "added on to traditional antipsychotic drugs; Labrie and Roder, 2010; cited from earlier work"}},
  "data": [
    {"smiles": "N[C@H](CO)C(=O)O", "note": "[D-serine]", "values": [
      {"measurement": "inhibition of [3H]L-serine transport in ASCT1-expressing HEK cells", "setting": "human ASCT1", "result": "completely inhibited"},
      {"measurement": "transport of [3H]D-serine into ASCT1-expressing HEK cells (substrate)", "setting": "human ASCT1; with and without extracellular sodium", "result": "transported into ASCT1-expressing HEK cells in a sodium-dependent manner"},
      {"measurement": "inhibition of [3H]L-serine transport in astrocytes", "setting": "[1]", "result": "completely inhibited"},
      {"measurement": "efficacy in clinical trials of schizophrenic patients", "setting": "schizophrenic patients", "result": "has shown efficacy"}
    ]}
  ]
}
